Measurements from publication PMC7155171, “Probing the Open Global Health Chemical Diversity Library for Multistage-Active Starting Points for Next-Generation Antimalarials” (ACS Infectious Diseases, 2020).
Read-outs that look alike come from different tables or passages of the source.

Tests used:
[1] = HepG2 cytotoxicity screening (CellTiter-Glo); conditions: human, uninfected HepG2-A16-CD81 (EGFP) hepatocytes
[2] = tested on: P. falciparum Dd2 (PfLuc) line expressing firefly luciferase, asexual blood stage; test: microbe, parasite or virus in culture; type: cell-based, Plasmodium falciparum; conditions: Plasmodium falciparum
[3] = tested on: P. berghei liver stage (PbLuc); test: P. berghei luciferase liver stage (PbLuc) assay in HepG2-A16-CD81 hepatocytes; type: cell-based, Plasmodium berghei
P. falciparum Dd2 = test: SYBR green I asexual blood stage proliferation assay (96 h); type: cell-based, Plasmodium falciparum; conditions: Plasmodium falciparum, DD2, 11-pt dose response, 96hr
[4] = DD2, read-out: P. falciparum Luciferase ABS 11-pt Reconfirmation Dose Response (48hr): IC50, 11-pt dose response, 48hr
[5] = DD2, 8-pt dose response, 96hr, read-out: P. falciparum Luciferase ABS 8-pt Reconfirmation Dose Response (96hr): IC50
[6] = DD2, 8-pt dose response, 96hr, read-out: P. falciparum Luciferase ABS 8-pt Reconfirmation Dose Response (96hr): Maximum inhibition (%)
[7] = DD2, 11-pt dose response, 48hr, read-out: P. falciparum Luciferase ABS 11-pt Reconfirmation Dose Response (48hr): Maximum inhibition (%)
[8] = DD2, 11-pt dose response, 96hr, read-out: P. falciparum Luciferase ABS 11-pt Reconfirmation Dose Response (96hr): IC50
[9] = DD2, 11-pt dose response, 96hr, read-out: P. falciparum Luciferase ABS 11-pt Reconfirmation Dose Response (96hr): Maximum inhibition (%)
[10] = read-out: P. falciparum Sybr Green I ABS 11-pt Reconfirmation Dose Response (96hr): IC50
[11] = read-out: P. falciparum Sybr Green I ABS 11-pt Reconfirmation Dose Response (96hr): Maximum inhibition (%)
[12] = DD2, read-out: CDD P. falciparum Luciferase ABS 11-pt Reconfirmation Dose Response (48hr): IC50 (μM), 11-pt dose response, 48hr
[13] = DD2, 8-pt dose response, 96hr, read-out: CDD P. falciparum Luciferase ABS 8-pt Reconfirmation Dose Response (96hr): IC50
[14] = DD2, 8-pt dose response, 96hr, read-out: CDD P. falciparum Luciferase ABS 8-pt Reconfirmation Dose Response (96hr): Maximum inhibition (%)
[15] = DD2, 11-pt dose response, 48hr, read-out: CDD P. falciparum Luciferase ABS 11-pt Reconfirmation Dose Response (48hr): Maximum inhibition (%)
[16] = DD2, 11-pt dose response, 96hr, read-out: CDD P. falciparum Luciferase ABS 11-pt Reconfirmation Dose Response (96hr): IC50
[17] = DD2, 11-pt dose response, 96hr, read-out: CDD P. falciparum Luciferase ABS 11-pt Reconfirmation Dose Response (96hr): Maximum inhibition (%)
[18] = Sybr Green I, read-out: CDD P. falciparum Sybr Green I ABS 11-pt Reconfirmation Dose Response (96hr): IC50
[19] = Sybr Green I, read-out: CDD P. falciparum Sybr Green I ABS 11-pt Reconfirmation Dose Response (96hr): Maximum inhibition (%)

Cn1cnnc1S(=O)(=O)C1CCN(S(=O)(=O)c2ccc(F)c(Cl)c2)CC1 [UCSD-0795178]
inhibition at 2 µM [1]: 2.47%

CCCNc1cc(-c2c[nH]nc2C2CCN(C(=O)C3CCC3)C2)ccn1 (centres unmarked) [UCSD-0798526]
inhibition at 2 µM [1]: 83.5%

CCc1cnc(N)nc1NC(C)c1ccc(C)c(C)c1 (centres unmarked) [DDD01250400]
IC50 [2, 4]: 2.84 µM
IC50 [2, 5]: 1.66 µM
Emax [2, 6]: 81%
Emax [2, 7]: 94.8%
IC50 [2, 8]: 0.373 µM
Emax [2, 9]: 99.6%
confirmed liver stage activity [3]: confirmed liver stage activity
IC50 (P. falciparum Dd2; [10]): 4480 nM
Emax (P. falciparum Dd2; [11]): 62.1%

Cc1cc(C)cc(CN2CCN(Cc3cccc(CCN)c3)CC2=O)c1 [UCSD-0834514]
inhibition at 2 µM [1]: -1.16%

CC(C)NC(=O)CNC(=O)C12CCC(=O)N1c1cc(Cl)ccc1S2 (centres unmarked) [UCSD-0589377]
inhibition at 2 µM [1]: 3.84%

CNC(=O)c1cccnc1NCc1ccc(Cn2ccnc2)cc1 [UCSD-0807977]
inhibition at 2 µM [1]: 73.6%

c1nc(N2CCCC(Cn3cncn3)C2)c2sccc2n1 (centres unmarked) [UCSD-0620442]
inhibition at 2 µM [1]: 1.85%

CN1CCN(CCc2ncnn2-c2ccc3c(c2)OCO3)CC1 [UCSD-0825202]
inhibition at 2 µM [1]: 8.32%

Clc1cnccc1NCc1cccc(COC2CCOCC2)c1 [UCSD-0814625]
inhibition at 2 µM [1]: 43.7%

O=C(c1cnc(OCC(F)(F)F)c(Cl)c1)N1CCc2ccc(O)cc2C1 [UCSD-0809130]
inhibition at 2 µM [1]: -5.64%

COc1ccc(CN2CCC=C(C(C)NC(C)=O)C2)cc1 (centres unmarked) [UCSD-0826536]
inhibition at 2 µM [1]: 6.35%

CC(C)(C)c1ncc(C(=O)NCCSc2ccccn2)c(O)n1 [UCSD-0828026]
inhibition at 2 µM [1]: 27.1%

COCCCC(=O)Nc1cc(Cl)c(Cl)cn1 [UCSD-0809266]
inhibition at 2 µM [1]: 59.5%

OC(c1ccccn1)C1CCN(Cc2cc3n(n2)CCNC3)CC1 (centres unmarked) [UCSD-0826546]
inhibition at 2 µM [1]: -15.7%

COc1cccc(CN2CCCC2c2ccc[nH]2)c1 (centres unmarked) [UCSD-0808841]
inhibition at 2 µM [1]: -1.63%

O=C1N(CC2CC2)CCCC1(O)CN1CCc2[nH]ncc2C1 (centres unmarked) [UCSD-0829471]
inhibition at 2 µM [1]: 2.23%

CN1CCC(N(C)CCC(=O)N2CCC(CCc3ccccc3)CC2)C1 (centres unmarked) [UCSD-0826822]
inhibition at 2 µM [1]: 18.9%

Cc1cc(Br)cnc1NCCN1CCC(N(C)C)CC1 [UCSD-0818517]
inhibition at 2 µM [1]: 4.34%

CC(NCc1cccs1)c1ccc(OCc2nccn2C)cc1 (centres unmarked) [UCSD-0817286]
inhibition at 2 µM [1]: -3.54%

O=C(NC1CC1)c1cc(NC(=O)N2CCOCC2)ccc1Cl [UCSD-0811531]
inhibition at 2 µM [1]: 1.26%

CS(=O)(=O)CCC(=O)NC1(c2cccc(C(F)(F)F)c2)CCC1 [UCSD-0816629]
inhibition at 2 µM [1]: -9.29%

N#Cc1nc(COc2ccc3c(c2)OCO3)oc1NC1CCCCC1 [UCSD-0630877]
inhibition at 2 µM [1]: 1.44%

N[C@@H]1CC[C@H](C(=O)NCCn2cc(Cl)cn2)C1 [UCSD-0831589]
inhibition at 2 µM [1]: -3.85%

CCS(=O)(=O)NCC1OCCc2cn(CC3CCOCC3)nc21 (centres unmarked) [UCSD-0791354]
inhibition at 2 µM [1]: -4.05%

COc1cccc(-n2nnc(C(=O)N3CCN(C)CC3C)c2C)c1 (centres unmarked) [UCSD-0845525]
inhibition at 2 µM [1]: 69.9%

Cc1cc(C)c(CCNC(=O)CN2CCCN(C(N)=O)CC2)c(C)c1 [UCSD-0809576]
inhibition at 2 µM [1]: -4.31%

CCS(=O)(=O)N(C)c1ccc(C(=O)N2CCCC(C)C2)cc1 (centres unmarked) [UCSD-0838984]
inhibition at 2 µM [1]: 8.06%

O=C1NCCN1C1CCN(Cc2nc(-c3ccccc3)no2)CC1 [UCSD-0839728]
inhibition at 2 µM [1]: -6.19%

CC(C)n1cnnc1C1CCCN(S(=O)(=O)CC2CCCC2)C1 (centres unmarked) [UCSD-0815907]
inhibition at 2 µM [1]: 27.3%

COc1ccc(C(=O)C2CCCN(c3cc(OC)ncn3)C2)c(C)c1 (centres unmarked) [UCSD-0833269]
inhibition at 2 µM [1]: 27.4%

COc1cc(Oc2ncccc2C(F)(F)F)ccc1CN1CCCC1 [UCSD-0833465]
inhibition at 2 µM [1]: 1.7%

Cc1nn(C)c(Cl)c1C1CCCN1C(=O)c1ccc(C(N)=O)cn1 (centres unmarked) [UCSD-0841146]
inhibition at 2 µM [1]: 26.8%

CCc1nnc2n1CCN(c1nc(C)cc(N(C)C)n1)C2 [UCSD-0803797]
inhibition at 2 µM [1]: 5.32%

CCCNC(=O)CN1CCOC(CC)C1 (centres unmarked) [UCSD-0814421]
inhibition at 2 µM [1]: -1.44%

CC(C)CC(C)N(C)C(=O)CCn1cccn1 (centres unmarked) [UCSD-0818578]
inhibition at 2 µM [1]: -0.31%

Cc1nc(C(=O)N2CC[C@@]3(C[C@@H](NS(C)(=O)=O)CCO3)C2)cs1 [UCSD-0821817]
inhibition at 2 µM [1]: 25.6%

Nc1cc(N2CCC(c3cc(Cc4ccccc4)n[nH]3)CC2)ccn1 [UCSD-0836781]
inhibition at 2 µM [1]: -2.51%

CC(C)(C)n1ncc2c1CCCC2NCc1ccc2c(c1)CCO2 (centres unmarked) [UCSD-0811334]
inhibition at 2 µM [1]: 2.05%

Cc1cnc2c(c1NCc1cccnc1)c(=O)n(C)c(=O)n2C [UCSD-0787013]
inhibition at 2 µM [1]: 5.36%

CCc1nnsc1C(=O)NC1CCN(CCOc2ccc(Br)cc2)CC1 [UCSD-0818165]
inhibition at 2 µM [1]: 23.1%

CCN1C[C@@H]2[C@@H](OC)CCN(C(=O)c3cc(C)nn3CC)[C@@H]2C1 [UCSD-0791117]
inhibition at 2 µM [1]: -3.65%

c1ccc(OC2COC3(CCN(Cc4ccccn4)CC3)C2)cc1 (centres unmarked) [UCSD-0822599]
inhibition at 2 µM [1]: 16.7%

Cc1nc(C)c(CN2CCOC[C@H](Oc3ccccc3)C2)s1 [UCSD-0784893]
inhibition at 2 µM [1]: 25.2%

CN(Cc1ccncc1)C1COC2(CCN(Cc3nccn3C)CC2)C1 (centres unmarked) [UCSD-0822929]
inhibition at 2 µM [1]: 2.08%

Cc1nc(NCc2noc(C3CCCO3)n2)c2sccc2n1 (centres unmarked) [UCSD-0827338]
inhibition at 2 µM [1]: 37.4%

CCc1c(C(=O)N2CCN(C)[C@@H]3CS(=O)(=O)C[C@@H]32)[nH]c2ccccc12 [UCSD-0827053]
inhibition at 2 µM [1]: -0.18%

CN(C)S(=O)(=O)c1csc(C(=O)N2CCSCC2)c1 [UCSD-0836661]
inhibition at 2 µM [1]: 3.97%

CN(Cc1cc(F)cc2cccnc12)CC1CCN(CCO)CC1 [DDD01063806]
IC50 [2, 12]: 3.63 µM
IC50 [2, 13]: 0.92 µM
Emax [2, 14]: 93.1%
Emax [2, 15]: 96.1%
IC50 [2, 16]: 2.11 µM
Emax [2, 17]: 100%
IC50 (P. falciparum Dd2; [18]): 1110 nM
Emax (P. falciparum Dd2; [19]): 93.2%

OCc1csc(N2CCCC(COc3cccc(F)c3)C2)n1 (centres unmarked) [DDD01251951]
IC50 [2, 4]: > 12.5 µM
IC50 [2, 5]: 1.71 µM
Emax [2, 6]: 79.1%
Emax [2, 7]: 45.9%
IC50 [2, 8]: 3.99 µM
Emax [2, 9]: 82.9%
IC50 (P. falciparum Dd2; [10]): 1630 nM
Emax (P. falciparum Dd2; [11]): 63%

CCCNc1cc(-c2c[nH]nc2C2CCN(C(=O)C3CCC3)C2)ccn1 (centres unmarked) [DDD01057089]
IC50 [2, 12]: 4.01 µM
IC50 [2, 13]: 0.31 µM
Emax [2, 14]: 96.1%
Emax [2, 15]: 86.1%
IC50 [2, 16]: 1.63 µM
Emax [2, 17]: 97.9%
IC50 (P. falciparum Dd2; [18]): 1340 nM
Emax (P. falciparum Dd2; [19]): 61.5%

Cc1ccc2[nH]c(-c3cn(C4CCNCC4)nn3)nc2c1C [DDD01246711]
IC50 [2, 12]: 2.21 µM
IC50 [2, 13]: 0.43 µM
Emax [2, 14]: 94.9%
Emax [2, 15]: 79.2%
IC50 [2, 16]: 2.07 µM
Emax [2, 17]: 99.2%
IC50 (P. falciparum Dd2; [18]): 4360 nM
Emax (P. falciparum Dd2; [19]): 79.6%

O=C(NCCc1ccccc1)NCCN1CCC(c2cccs2)CC1 [DDD01028018]
IC50 [2, 4]: 5.18 µM
IC50 [2, 5]: 1.18 µM
Emax [2, 6]: 87.7%
Emax [2, 7]: 64%
IC50 [2, 8]: 1.42 µM
Emax [2, 9]: 87.1%
IC50 (P. falciparum Dd2; [10]): > 4160 nM
Emax (P. falciparum Dd2; [11]): 69.6%

CC(C)CNC(=O)C1(Cc2ccccc2-c2cccs2)CCNC1 (centres unmarked) [DDD01059689]
IC50 [2, 12]: > 12.5 µM
IC50 [2, 13]: 0.92 µM
Emax [2, 14]: 73.8%
Emax [2, 15]: 49.4%
IC50 [2, 16]: > 1.39 µM
Emax [2, 17]: 87.3%
IC50 (P. falciparum Dd2; [18]): > 12500 nM
Emax (P. falciparum Dd2; [19]): 45.7%

Cc1ccc(CN2CCC3(CC2)CCN(Cc2ccco2)CC3)cc1 [DDD01031591]
IC50 [2, 12]: 7.27 µM
IC50 [2, 13]: 0.77 µM
Emax [2, 15]: 74.1%
IC50 [2, 16]: 0.938 µM
Emax [2, 17]: 94.4%
IC50 (P. falciparum Dd2; [18]): 6720 nM
Emax (P. falciparum Dd2; [19]): 84.1%
